This note sets out measurements from US20040142012A1, “Geometry retainable devices for body cavities” (priority 2001, published 2004).

The conditions of the data set: in vivo. The method, then:
Progesterone content in the plasma was determined by direct radio immuno assay (Coat-a-Count, DPC, USA).

Turning to poly (ε-caprolactone), the “Time to return to undetectable basal plasma progesterone levels after insert removal” value was not above 24 h.
